Target: T1, sGC α1/β1 heterodimer (Homo sapiens, UniProt Q02108+Q02153)
T1 construct: expressed in transfected cells; host or cells: CHO-K1 (clone #7, CHO-K1/sGC)
T1 sequence (Q02108 1-690): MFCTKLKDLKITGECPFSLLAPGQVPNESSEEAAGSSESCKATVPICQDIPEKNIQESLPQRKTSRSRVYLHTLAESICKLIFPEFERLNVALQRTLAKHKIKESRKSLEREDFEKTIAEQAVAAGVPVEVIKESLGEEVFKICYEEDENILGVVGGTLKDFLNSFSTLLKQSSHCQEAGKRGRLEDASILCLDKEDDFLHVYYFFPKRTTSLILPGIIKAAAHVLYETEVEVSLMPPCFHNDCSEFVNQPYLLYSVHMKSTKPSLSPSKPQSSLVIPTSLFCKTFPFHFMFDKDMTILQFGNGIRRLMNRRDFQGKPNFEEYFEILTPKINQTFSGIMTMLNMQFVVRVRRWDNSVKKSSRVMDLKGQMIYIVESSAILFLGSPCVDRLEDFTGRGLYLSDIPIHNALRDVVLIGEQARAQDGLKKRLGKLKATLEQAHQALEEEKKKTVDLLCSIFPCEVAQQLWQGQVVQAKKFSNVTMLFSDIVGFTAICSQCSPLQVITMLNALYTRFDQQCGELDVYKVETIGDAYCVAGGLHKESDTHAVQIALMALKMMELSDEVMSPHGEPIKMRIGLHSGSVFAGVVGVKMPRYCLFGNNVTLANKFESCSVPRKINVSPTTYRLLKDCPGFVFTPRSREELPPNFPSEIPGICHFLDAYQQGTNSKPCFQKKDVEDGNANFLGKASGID
T1 sequence (Q02153 1-619): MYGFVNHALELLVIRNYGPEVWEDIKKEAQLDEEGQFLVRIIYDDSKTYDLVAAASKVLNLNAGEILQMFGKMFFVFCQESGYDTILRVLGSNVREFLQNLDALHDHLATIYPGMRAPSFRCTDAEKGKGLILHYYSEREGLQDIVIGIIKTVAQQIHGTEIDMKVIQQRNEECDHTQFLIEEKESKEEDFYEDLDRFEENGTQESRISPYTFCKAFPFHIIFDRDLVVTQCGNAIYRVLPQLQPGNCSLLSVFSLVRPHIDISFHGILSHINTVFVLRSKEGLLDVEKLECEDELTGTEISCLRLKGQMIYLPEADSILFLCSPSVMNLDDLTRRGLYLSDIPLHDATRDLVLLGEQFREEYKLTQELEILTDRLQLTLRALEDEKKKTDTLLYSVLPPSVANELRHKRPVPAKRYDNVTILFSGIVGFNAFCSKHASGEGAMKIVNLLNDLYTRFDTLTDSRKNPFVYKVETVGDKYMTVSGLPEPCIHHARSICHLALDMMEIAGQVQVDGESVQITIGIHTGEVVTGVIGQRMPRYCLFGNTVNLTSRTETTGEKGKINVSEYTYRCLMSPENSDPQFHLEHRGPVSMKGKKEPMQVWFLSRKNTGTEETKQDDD
Assay: Cell-based sGC functional assay (CASA assay): cGMP generation in CHO-K1/sGC cells, HTRF detection
Details: for Emax: CHO-K1, percent activation relative to standard Compound A in CHO-K1/sGC cells, read-out: % Act.; for EC50: inflection point (IP) of cGMP generation in CHO-K1/sGC cells, 4P fit, activity expressed as percentage of Compound A
In short: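 Stable CHO-K1/sGC cells in EBSS buffer with 5 mM MgCl2, 0.05% BSA and 0.5 mM IBMX were incubated with compound (2.5% DMSO final) ±1 μM DETA-NO for 1 hr at 37° C. cGMP was measured by HTRF. Activation is expressed as % of reference HDA Compound A maximum, with IP and max fold induction from a 4P fit.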

Row | Emax [%] | EC50 [nM] | Compound
1 | 76 | 354 | CCc1cnc2c(CCC(F)(F)C(F)(F)F)nc(-c3nc(N)c4c(n3)NC(=O)C4(C)c3ccc(F)cc3)cn12 (stereo not shown) [Example 161A, 4-amino-2-(3-ethyl-8-(3,3,4,4,4-pentafluorobutyl)imidazo [1,2-a]pyrazin-6-yl)-5-(4-fluorophenyl)-5-methyl-5H-pyrrolo[2,3-d]pyrimidin-6(7H)-one]
2 | 88 | 168 | Cc1cn2cc(-c3nc(N)c4c(n3)NC(=O)C4(C)c3ccc(F)cn3)nc(Cc3ccc(F)cc3)c2n1 (stereo not shown) [Example 162B, 4-amino-2-(8-(4-fluorobenzyl)-2-methylimidazo[1,2-a]pyrazin-6-yl)-5-(5-fluoropyridin-2-yl)-5-methyl-5H-pyrrolo[2,3-d]pyrimidin-6(7H)-one]
3 | 84 | 230 | Cc1cnc2c(Cc3ccc(F)cc3)nc(-c3nc(N)c4c(n3)NC(=O)C4(C)c3ccc(F)cn3)cn12 (stereo not shown) [Example 163B, 4-amino-2-(8-(4-fluorobenzyl)-3-methylimidazo[1,2-a]pyrazin-6-yl)-5-(5-fluoropyridin-2-yl)-5-methyl-5H-pyrrolo[2,3-d]pyrimidin-6(7H)-one]
4 | 93 | 81 | CCCCc1nc(-c2nc(N)c3c(n2)NC(=O)C3(C)c2ccc(F)cn2)cn2cc(C)nc12 (stereo not shown) [Example 164B, 4-amino-2-(8-butyl-2-methylimidazo[1,2-a]pyrazin-6-yl)-5-(5-fluoropyridin-2-yl)-5-methyl-5H-pyrrolo[2,3-d]pyrimidin-6(7H)-one]
5 | 81 | 43 | CCCCc1nc(-c2nc(N)c3c(n2)NC(=O)C3(C)c2ccc(F)cn2)cn2c(C)cnc12 (stereo not shown) [Example 165B, 4-amino-2-(8-butyl-3-methylimidazo[1,2-a]pyrazin-6-yl)-5-(5-fluoropyridin-2-yl)-5-methyl-5H-pyrrolo[2,3-d]pyrimidin-6(7H)-one]
6 | 99 | 41 | CCCCc1nc(-c2nc(N)c3c(n2)NC(=O)C3(C)c2ccc(C(F)(F)F)cn2)cn2c(C)cnc12 (stereo not shown) [Example 167B, 4-amino-2-(8-butyl-3-methylimidazo[1,2-a]pyrazin-6-yl)-5-methyl-5-(5-(trifluoromethyl)pyridin-2-yl)-5H-pyrrolo[2,3-d]pyrimidin-6(7H)-one]
7 | 75 | 19 | CCCCc1nc(-c2nc(N)c3c(n2)NC(=O)C3(C)c2ccc(Cl)cn2)cn2c(C)cnc12 (stereo not shown) [Example 169A, 4-amino-2-(8-butyl-3-methylimidazo[1,2-a]pyrazin-6-yl)-5-(5-chloropyridin-2-yl)-5-methyl-5H-pyrrolo[2,3-d]pyrimidin-6(7H)-one]
8 | 107 | 129 | Cc1nc2c(CCC(F)(F)C(F)(F)F)nc(-c3nc(N)c4c(n3)NC(=O)C4(C)c3ccc(F)cc3)cn2c1C (stereo not shown) [Example 177A, 4-amino-2-(2,3-dimethyl-8-(3,3,4,4,4-pentafluorobutyl)imidazo [1,2-a]pyrazin-6-yl)-5-(4-fluorophenyl)-5-methyl-5H-pyrrolo[2,3-d]pyrimidin-6(7H)-one]

Continued, compound first:

Row | Compound | Emax [%] | EC50 [nM]
9 | Nc1nc(-c2cn3ccnc3cn2)nc2c1C(c1ccc(Cl)cc1)(C1CC1)C(=O)N2 (stereo not shown) [Example 146B, 4-amino-5-(4-chlorophenyl)-5-cyclopropyl-2-(imidazo[1,2-a]pyrazin-6-yl)-5H-pyrrolo[2,3-d]pyrimidin-6(7H)-one] | 95 | 461
10 | CC1(c2ccc(F)cc2)C(=O)Nc2nc(-c3cn4cc(C(F)(F)F)nc4c(Cc4ccccc4F)n3)nc(N)c21 (stereo not shown) [Example 147A, 4-amino-2-(8-(2-fluorobenzyl)-2-(trifluoromethyl)imidazo[1,2-a]pyrazin-6-yl)-5-(4-fluorophenyl)-5-methyl-5H-pyrrolo[2,3-d]pyrimidin-6(7H)-one] | 120 | 12
11 | CC1(c2ccc(F)cc2)C(=O)Nc2nc(-c3cn4cc(C(F)(F)F)nc4c(Cc4cccc(F)c4F)n3)nc(N)c21 (stereo not shown) [Example 148A, 4-amino-2-(8-(2,3-difluorobenzyl)-2-(trifluoromethyl)imidazo[1,2-a]pyrazin-6-yl)-5-(4-fluorophenyl)-5-methyl-5H-pyrrolo[2,3-d]pyrimidin-6(7H)-one] | 148 | 24
12 | CC1(c2ccc(F)cc2)C(=O)Nc2nc(-c3cn4cc(C(F)(F)F)nc4c(Cc4cccc(F)c4)n3)nc(N)c21 (stereo not shown) [Example 149A, 4-amino-2-(8-(3-fluorobenzyl)-2-(trifluoromethyl)imidazo[1,2-a]pyrazin-6-yl)-5-(4-fluorophenyl)-5-methyl-5H-pyrrolo[2,3-d]pyrimidin-6(7H)-one] | 111 | 22
13 | CC1(c2ccc(Cl)cc2)C(=O)Nc2nc(-c3cn4cc(C(F)(F)F)nc4c(Cc4cccc(F)c4)n3)nc(N)c21 (stereo not shown) [Example 150A, 4-amino-5-(4-chlorophenyl)-2-(8-(3-fluorobenzyl)-2-(trifluoromethyl)imidazo[1,2-a]pyrazin-6-yl)-5-methyl-5H-pyrrolo[2,3-d]pyrimidin-6(7H)-one] | 122 | 29
14 | CC1(c2ccc(Cl)cc2)C(=O)Nc2nc(-c3cn4cc(C(F)(F)F)nc4c(Cc4ccccc4F)n3)nc(N)c21 (stereo not shown) [Example 151A, 4-amino-5-(4-chlorophenyl)-2-(8-(2-fluorobenzyl)-2-(trifluoromethyl)imidazo[1,2-a]pyrazin-6-yl)-5-methyl-5H-pyrrolo[2,3-d]pyrimidin-6(7H)-one] | 106 | 19
15 | CC1(c2ccc(F)cc2)C(=O)Nc2nc(-c3cn4cc(C(F)(F)F)nc4c(Cc4ccc(F)c(F)c4)n3)nc(N)c21 (stereo not shown) [Example 152A, 4-amino-2-(8-(3,4-difluorobenzyl)-2-(trifluoromethyl)imidazo[1,2-a]pyrazin-6-yl)-5-(4-fluorophenyl)-5-methyl-5H-pyrrolo[2,3-d]pyrimidin-6(7H)-one] | 129 | 43
16 | CC1(c2ccc(Cl)cc2)C(=O)Nc2nc(-c3cn4cc(C(F)(F)F)nc4c(Cc4ccc(F)cc4)n3)nc(N)c21 (stereo not shown) [Example 153A, 4-amino-5-(4-chlorophenyl)-2-(8-(4-fluorobenzyl)-2-(trifluoromethyl)imidazo[1,2-a]pyrazin-6-yl)-5-methyl-5H-pyrrolo[2,3-d]pyrimidin-6(7H)-one] | 110 | 37
17 | CC1(c2ccc(F)cc2)C(=O)Nc2nc(-c3cn4cc(C(F)(F)F)nc4c(Cc4ccc(F)cc4)n3)nc(N)c21 (stereo not shown) [Example 155A, 4-amino-2-(8-(4-fluorobenzyl)-2-(trifluoromethyl)imidazo[1,2-a]pyrazin-6-yl)-5-(4-fluorophenyl)-5-methyl-5H-pyrrolo[2,3-d]pyrimidin-6(7H)-one] | 112 | 130
18 | CC1(c2ccc(F)cc2)C(=O)Nc2nc(-c3cn4cc(C(F)(F)F)nc4c(CCC(F)(F)C(F)(F)F)n3)nc(N)c21 (stereo not shown) [Example 156A, 4-amino-5-(4-fluorophenyl)-5-methyl-2-(8-(3,3,4,4,4-pentafluorobutyl)-2-(trifluoromethyl)imidazo[1,2-a]pyrazin-6-yl)-5H-pyrrolo[2,3-d]pyrimidin-6(7H)-one] | 92 | 163
19 | CC1(c2ccccc2)C(=O)Nc2nc(-c3cn4cc(C5CC5)nc4c(CCC(F)(F)C(F)(F)F)n3)nc(N)c21 (stereo not shown) [Example 158B, 4-amino-2-(2-cyclopropyl-8-(3,3,4,4,4-pentafluorobutyl)imidazo [1,2-a]pyrazin-6-yl)-5-methyl-5-phenyl-5H-pyrrolo[2,3-d]pyrimidin-6(7H)-one] | 109 | 296
20 | CCc1cn2cc(-c3nc(N)c4c(n3)NC(=O)C4(C)c3ccccc3)nc(CCC(F)(F)C(F)(F)F)c2n1 (stereo not shown) [Example 160B, 4-amino-2-(2-ethyl-8-(3,3,4,4,4-pentafluorobutyl)imidazo [1,2-a]pyrazin-6-yl)-5-methyl-5-phenyl-5H-pyrrolo[2,3-d]pyrimidin-6(7H)-one] | 102 | 978
